Experiments:
Assay type in all cases: in vivo
[1] = system: blackgrass (Alopecurus myosuroides); test: Test A postemergence, visual plant response rating; details: for Blackgrass plant response rating (0 to 100 scale): 500 g ai/ha, postemergence, 0 is no effect, 100 is complete control; for Blackgrass plant response rating: Postemergence, 125 g ai/ha, 0 to 100 scale (0 no effect, 100 complete control)
How it was run: (§1)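 Compared with untreated controls, treated plants received a visual injury score on a 0–100 scale around 10 days after application. The compound, in a non-phytotoxic solvent with surfactant, was given as a preemergence soil spray or postemergence at the one- to two-leaf stage.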

kochia (Kochia scoparia) [2] = test: Test A postemergence, visual plant response rating; details: for Kochia plant response rating (0 to 100 scale): 500 g ai/ha, postemergence, 0 is no effect, 100 is complete control; for Kochia plant response rating: Postemergence, 125 g ai/ha, 0 to 100 scale (0 no effect, 100 complete control)
How it was run: as §1

corn (Zea mays) = test: Test A postemergence, visual plant response rating; details: for Corn plant response rating (0 to 100 scale): 500 g ai/ha, postemergence, 0 is no effect, 100 is complete control; for Corn plant response rating: Postemergence, 125 g ai/ha, 0 to 100 scale (0 no effect, 100 complete control)
How it was run: as §1

[3] = system: wheat (Triticum aestivum); test: Test A postemergence, visual plant response rating; details: for Wheat plant response rating (0 to 100 scale): 500 g ai/ha, postemergence, 0 is no effect, 100 is complete control; for Wheat plant response rating: Postemergence, 125 g ai/ha, 0 to 100 scale (0 no effect, 100 complete control)
How it was run: as §1

[4] = system: pigweed (Amaranthus retroflexus); test: Test A postemergence, visual plant response rating; details: for Pigweed plant response rating (0 to 100 scale): 500 g ai/ha, postemergence, 0 is no effect, 100 is complete control; for Pigweed plant response rating: Postemergence, 125 g ai/ha, 0 to 100 scale (0 no effect, 100 complete control)
How it was run: as §1

[5] = system: barnyardgrass (Echinochloa crus-galli); test: Test A postemergence, visual plant response rating; details: for Barnyardgrass plant response rating (0 to 100 scale): 500 g ai/ha, postemergence, 0 is no effect, 100 is complete control; for Barnyardgrass plant response rating: Postemergence, 125 g ai/ha, 0 to 100 scale (0 no effect, 100 complete control)
How it was run: as §1

[6] = system: ragweed (common ragweed, Ambrosia elatior); test: Test A postemergence, visual plant response rating; details: for Ragweed plant response rating (0 to 100 scale): 500 g ai/ha, postemergence, 0 is no effect, 100 is complete control; for Ragweed plant response rating: Postemergence, 125 g ai/ha, 0 to 100 scale (0 no effect, 100 complete control)
How it was run: as §1

[7] = system: Italian ryegrass (Lolium multiflorum); test: Test A postemergence, visual plant response rating; details: for Ryegrass, Italian plant response rating (0 to 100 scale): 500 g ai/ha, postemergence, 0 is no effect, 100 is complete control; for Ryegrass, Italian plant response rating: Postemergence, 125 g ai/ha, 0 to 100 scale (0 no effect, 100 complete control)
How it was run: as §1

[8] = system: galium (catchweed bedstraw, Galium aparine); test: Test A postemergence, visual plant response rating; details: for Galium plant response rating (0 to 100 scale): 500 g ai/ha, postemergence, 0 is no effect, 100 is complete control; for Galium plant response rating: Postemergence, 125 g ai/ha, 0 to 100 scale (0 no effect, 100 complete control)
How it was run: as §1

[9] = system: foxtail, giant (giant foxtail, Setaria faberii); test: Test A postemergence, visual plant response rating; details: for Foxtail, Giant plant response rating (0 to 100 scale): 500 g ai/ha, postemergence, 0 is no effect, 100 is complete control; for Foxtail, Giant plant response rating: Postemergence, 125 g ai/ha, 0 to 100 scale (0 no effect, 100 complete control)
How it was run: as §1

[10] = system: ducksalad (Heteranhera limosa); test: Test B flooded paddy test, visual plant response rating; details: 250 g ai/ha, Flood, applied to paddy water, 2-leaf stage, evaluated after 13 to 15 days
How it was run: (§2)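 2-leaf plants; pots flooded 3 cm over soil surface; compound dosed straight into the floodwater; depth kept constant; greenhouse 13–15 d; visual rating vs. untreated controls.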

rice (Oryza sativa) = test: as above; details: 250 g ai/ha, Flood, applied to paddy water, 2-leaf stage, evaluated after 13 to 15 days
How it was run: as §2

[11] = system: sedge, umbrella (small-flower umbrella sedge, Cyperus difformis); test: as above; details: 250 g ai/ha, Flood, applied to paddy water, 2-leaf stage, evaluated after 13 to 15 days
How it was run: as §2

[12] = system: barnyardgrass (Echinochloa crus-galli); test: as above; details: 250 g ai/ha, Flood, applied to paddy water, 2-leaf stage, evaluated after 13 to 15 days
How it was run: as §2

kochia (Kochia scoparia) [13] = test: Test A preemergence, visual plant response rating; details: for Kochia plant response rating: 125 g ai/ha, preemergence, 0 to 100 scale, 0 no effect, 100 complete control; for Kochia plant response rating (0 to 100 scale): 500 g ai/ha Preemergence, approx. 10 days
How it was run: as §1

[14] = system: pigweed (Amaranthus retroflexus); test: Test A preemergence, visual plant response rating; details: for Pigweed plant response rating: 125 g ai/ha, preemergence, 0 to 100 scale, 0 no effect, 100 complete control; for Pigweed plant response rating (0 to 100 scale): 500 g ai/ha Preemergence, approx. 10 days
How it was run: as §1

[15] = system: barnyardgrass (Echinochloa crus-galli); test: Test A preemergence, visual plant response rating; details: for Barnyardgrass plant response rating: 125 g ai/ha, preemergence, 0 to 100 scale, 0 no effect, 100 complete control; for Barnyardgrass plant response rating (0 to 100 scale): 500 g ai/ha Preemergence, approx. 10 days
How it was run: as §1

[16] = system: ragweed (common ragweed, Ambrosia elatior); test: Test A preemergence, visual plant response rating; details: for Ragweed plant response rating: 125 g ai/ha, preemergence, 0 to 100 scale, 0 no effect, 100 complete control; for Ragweed plant response rating (0 to 100 scale): 500 g ai/ha Preemergence, approx. 10 days
How it was run: as §1

[17] = system: Italian ryegrass (Lolium multiflorum); test: Test A preemergence, visual plant response rating; details: for Ryegrass, Italian plant response rating: 125 g ai/ha, preemergence, 0 to 100 scale, 0 no effect, 100 complete control; for Ryegrass, Italian plant response rating (0 to 100 scale): 500 g ai/ha Preemergence, approx. 10 days
How it was run: as §1

[18] = system: foxtail, giant (giant foxtail, Setaria faberii); test: Test A preemergence, visual plant response rating; details: for Foxtail, Giant plant response rating: 125 g ai/ha, preemergence, 0 to 100 scale, 0 no effect, 100 complete control; for Foxtail, Giant plant response rating (0 to 100 scale): 500 g ai/ha Preemergence, approx. 10 days
How it was run: as §1

| Structure (SMILES) | Blackgrass plant response rating (0 to 100 scale) [1] | Blackgrass plant response rating [1] | Kochia plant response rating (0 to 100 scale) (kochia (Kochia scoparia) [2]) | Kochia plant response rating (kochia (Kochia scoparia) [2]) | Corn plant response rating (0 to 100 scale) (corn (Zea mays)) | Corn plant response rating (corn (Zea mays)) | Wheat plant response rating (0 to 100 scale) [3] | Wheat plant response rating [3] | Pigweed plant response rating (0 to 100 scale) [4] | Pigweed plant response rating [4] | Barnyardgrass plant response rating (0 to 100 scale) [5] | Barnyardgrass plant response rating [5] | Ragweed plant response rating (0 to 100 scale) [6] | Ragweed plant response rating [6] | Ryegrass, Italian plant response rating (0 to 100 scale) [7] | Ryegrass, Italian plant response rating [7] | Galium plant response rating (0 to 100 scale) [8] | Galium plant response rating [8] | Foxtail, Giant plant response rating (0 to 100 scale) [9] | Foxtail, Giant plant response rating [9] | other results |
| --- | --- | --- | --- | --- | --- | --- | --- | --- | --- | --- | --- | --- | --- | --- | --- | --- | --- | --- | --- | --- | --- |
| CON=C(c1c(O)c(C)nn(C)c1=O)c1cccc2cc(Br)ccc12 [Compound 100] | 90 | 90 | 70 | 70 | 40 | 10 | 50 | 0 | 90 | 90 | 70 | 30 | 100 | 90 | 90 | 80 | 90 | 90 | 80 | 70 | Plant response rating, Ducksalad (0 to 100 scale, 0 is no effect, 100 is complete control) [10]: 0; Plant response rating, Rice (0 to 100 scale, 0 is no effect, 100 is complete control) (rice (Oryza sativa)): 0; Plant response rating, Sedge, Umbrella (0 to 100 scale, 0 is no effect, 100 is complete control) [11]: 0; Plant response rating, Barnyardgrass (0 to 100 scale, 0 is no effect, 100 is complete control) [12]: 0; Kochia plant response rating (kochia (Kochia scoparia) [13]): 10; Kochia plant response rating (0 to 100 scale) (kochia (Kochia scoparia) [13]): 60; Pigweed plant response rating [14]: 90; Pigweed plant response rating (0 to 100 scale) [14]: 100; Barnyardgrass plant response rating [15]: 50; Barnyardgrass plant response rating (0 to 100 scale) [15]: 80; Ragweed plant response rating [16]: 100; Ragweed plant response rating (0 to 100 scale) [16]: 100; Ryegrass, Italian plant response rating [17]: 50; Ryegrass, Italian plant response rating (0 to 100 scale) [17]: 100; Foxtail, Giant plant response rating [18]: 60; Foxtail, Giant plant response rating (0 to 100 scale) [18]: 100 |
| CCc1ccccc1/C(=N\OC)c1c(O)c(C)nn(C)c1=O [Compound 69] | 60 | 10 | 70 | 50 | 20 | 0 | 0 | 0 | 70 | 40 | 30 | 20 | 70 | 70 | 80 | 80 | 80 | 70 | 40 | 10 | Plant response rating, Ducksalad (0 to 100 scale, 0 is no effect, 100 is complete control) [10]: 0; Plant response rating, Rice (0 to 100 scale, 0 is no effect, 100 is complete control) (rice (Oryza sativa)): 0; Plant response rating, Sedge, Umbrella (0 to 100 scale, 0 is no effect, 100 is complete control) [11]: 0; Plant response rating, Barnyardgrass (0 to 100 scale, 0 is no effect, 100 is complete control) [12]: 0; Kochia plant response rating (kochia (Kochia scoparia) [13]): 0; Kochia plant response rating (0 to 100 scale) (kochia (Kochia scoparia) [13]): 10; Pigweed plant response rating [14]: 10; Pigweed plant response rating (0 to 100 scale) [14]: 70; Barnyardgrass plant response rating [15]: 0; Barnyardgrass plant response rating (0 to 100 scale) [15]: 10; Ragweed plant response rating [16]: 10; Ragweed plant response rating (0 to 100 scale) [16]: 40; Ryegrass, Italian plant response rating [17]: 10; Ryegrass, Italian plant response rating (0 to 100 scale) [17]: 80; Foxtail, Giant plant response rating [18]: 10; Foxtail, Giant plant response rating (0 to 100 scale) [18]: 30 |
| CON=C(c1cc(Cl)ccc1C(F)(F)F)c1c(O)c(C)nn(C)c1=O [Compound 97] | 90 | 70 | 70 | 60 | 40 | 0 | 50 | 30 | 80 | 80 | 60 | 40 | 80 | 70 | 100 | 90 | 90 | 70 | 80 | 70 | Plant response rating, Ducksalad (0 to 100 scale, 0 is no effect, 100 is complete control) [10]: 0; Plant response rating, Rice (0 to 100 scale, 0 is no effect, 100 is complete control) (rice (Oryza sativa)): 0; Plant response rating, Sedge, Umbrella (0 to 100 scale, 0 is no effect, 100 is complete control) [11]: 0; Plant response rating, Barnyardgrass (0 to 100 scale, 0 is no effect, 100 is complete control) [12]: 0; Kochia plant response rating (kochia (Kochia scoparia) [13]): 20; Kochia plant response rating (0 to 100 scale) (kochia (Kochia scoparia) [13]): 50; Pigweed plant response rating [14]: 40; Pigweed plant response rating (0 to 100 scale) [14]: 90; Barnyardgrass plant response rating [15]: 70; Barnyardgrass plant response rating (0 to 100 scale) [15]: 90; Ragweed plant response rating [16]: 60; Ragweed plant response rating (0 to 100 scale) [16]: 100; Ryegrass, Italian plant response rating [17]: 80; Ryegrass, Italian plant response rating (0 to 100 scale) [17]: 100; Foxtail, Giant plant response rating [18]: 80; Foxtail, Giant plant response rating (0 to 100 scale) [18]: 90 |

From patent US20210045385A1, “PYRIDAZINONE-SUBSTITUTED KETOXIMES AS HERBICIDES” (FMC Corporation, priority 2018, published 2021)
